The values below come from paper PMC4872165, “Targeting human respiratory syncytial virus transcription anti-termination factor M2-1 to inhibit in vivo viral replication” (Scientific Reports, 2016).

Structures are written as SMILES.

The target of the assay is T1, hRSV RNA-dependent RNA polymerase (RdRp) complex with M2-1 (L, P, N, M2-1 minigenome) (Human respiratory syncytial virus A2, UniProt P04545).
T1 construct: pN, pP, pL and pM2-1 plasmids (T7 promoter) in BSR-T7/5 (BHK-21) cells with pM/Luc minigenome; strain printed for the virus only, not for the plasmids; M2-1 tetrameric; with RNA-directed RNA polymerase L; Phosphoprotein; Nucleoprotein
T1 sequence (P04545 whole entry, looked up, one chain of several): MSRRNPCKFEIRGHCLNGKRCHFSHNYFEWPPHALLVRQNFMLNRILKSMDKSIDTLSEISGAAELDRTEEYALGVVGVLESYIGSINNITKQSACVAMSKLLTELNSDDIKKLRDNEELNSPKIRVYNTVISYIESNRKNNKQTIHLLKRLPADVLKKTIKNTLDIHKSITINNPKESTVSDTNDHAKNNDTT
Description: hRSV minigenome luciferase reporter assay in transfected BSR-T7/[…] cells. Format: cell-based. On the technique in general: Reporter assays use an easily measured gene product as a stand-in for the process of interest.

With `CC1=C2C[C@H]3[C@@H](CC=C4C[C@@H](O)CC[C@@]43C)[C@@H]2CC[C@]12O[C@@H]1C[C@H](C)CN[C@H]1[C@H]2C` [cyclopamine], inhibition was half-maximal at 380 nM (IC50).
